Active and inactive are the calls of the source. The calls are words filed in the database; no cut-off is given here.
Assays:
Influenza A virus [1] = test: Antiviral activity against Influenza A virus (A/Puerto Rico/8/(H1N1)) assessed as inhibition of virus-induced cytopathic effect after 3 to 6 days by microscopic analysis; assay type: functional, organism-based
[2] = Cytotoxicity against human HeLa cells assessed as cell viability after 4 to 6 days by microscopic analysis; assay type: cell-based
[3] = Lipophilicity, logK of the compound by RP-HPLC analysis; assay type: physicochemical
[4] = test system: Mycobacterium tuberculosis; test: Antimycobacterial activity against Mycobacterium tuberculosis H37Rv CNCTC My 331/88 incubated for 10 to 14 days by microplate alamar blue assay; assay type: functional
[5] = Cytotoxicity against MDCK cells assessed as cell viability after 4 to 6 days by formazan-based MTS assay; parameters: species or system Canis lupus familiaris; settings: dog
Mycobacterium avium [6] = test: Antimycobacterial activity against Mycobacterium avium CNCTC My 80/72 after 5 days by microplate alamar blue assay; assay type: functional; settings: CNCTC My 80/72, 120 h
[7] = Cytotoxicity against MDCK cells assessed as cell viability after 4 to 6 days by microscopic analysis; assay type: cell-based, Canis lupus familiaris; settings: dog
Mycobacterium avium [8] = test: Antimycobacterial activity against Mycobacterium avium CNCTC My 152/73 after 5 days by microplate alamar blue assay; assay type: functional; settings: CNCTC My 152/73, 120 h
Influenza A virus [9] = test: Antiviral activity against Influenza A virus (A/Puerto Rico/8/(H1N1)) assessed as inhibition of virus-induced cytopathic effect after 3 to 6 days by formazan-based MTS assay; assay type: functional, organism-based
Mycobacterium kansasii = test: Antimycobacterial activity against Mycobacterium kansasii CNCTC My 235/80 incubated for 5 to 7 days by microplate alamar blue assay; assay type: functional
[10] = Cytotoxicity against CRFK cells assessed as cell viability after 4 to 6 days by formazan-based MTS assay; parameters: species or system Felis catus; settings: cat
[11] = Cytotoxicity against African green monkey Vero cells assessed as cell viability after 4 to 6 days by microscopic analysis; assay type: cell-based; settings: chlorocebus sabaeus
[12] = Cytotoxicity against HEL cells assessed as cell viability after 4 to 6 days by microscopic analysis; assay type: cell-based; settings: human
Pichia kudriavzevii = test: Antifungal activity against Candida krusei E28 after 24 to 48 hrs by broth microdilution method; assay type: functional
[13] = test system: Trichophyton mentagrophytes; test: Antifungal activity against Trichophyton mentagrophytes 445 after 72 to 120 hrs by broth microdilution method; assay type: functional
Klebsiella pneumoniae [14] = test: Antibacterial activity against ESBL positive Klebsiella pneumoniae J 14368/08 after 24 to 48 hrs by broth microdilution method; assay type: functional
Nakaseomyces glabratus = test: Antifungal activity against Candida glabrata 20/I after 24 to 48 hrs by broth microdilution method; assay type: functional
Aspergillus fumigatus = test: Antifungal activity against Aspergillus fumigatus 231 after 24 to 48 hrs by broth microdilution method; assay type: functional
Escherichia coli = test: Antibacterial activity against Escherichia coli CCM 4517 after 24 to 48 hrs by broth microdilution method; assay type: functional
Trichosporon asahii = test: Antifungal activity against Trichosporon asahii 1188 after 24 to 48 hrs by broth microdilution method; assay type: functional
Candida albicans = test: Antifungal activity against Candida albicans ATCC 44859 after 24 to 48 hrs by broth microdilution method; assay type: functional
Lichtheimia corymbifera = test: Antifungal activity against Lichtheimia corymbifera 272 after 24 to 48 hrs by broth microdilution method; assay type: functional
Pseudomonas aeruginosa = test: Antibacterial activity against Pseudomonas aeruginosa CCM 1961 after 24 to 48 hrs by broth microdilution method; assay type: functional
Klebsiella pneumoniae [15] = test: Antibacterial activity against Klebsiella pneumoniae D 11750/08 after 24 to 48 hrs by broth microdilution method; assay type: functional
Candida tropicalis = test: Antifungal activity against Candida tropicalis 156 after 24 to 48 hrs by broth microdilution method; assay type: functional
[16] = test system: Mycobacterium tuberculosis; test: Potency index, ratio of pyrazinamide MIC to compound MIC for Mycobacterium tuberculosis H37Rv CNCTC My 331/88; assay type: functional
Staphylococcus aureus = test: Antibacterial activity against methicillin-resistant Staphylococcus aureus H 5996/08 after 24 to 48 hrs by broth microdilution method; assay type: functional, organism-based

SMILES	EC50 (Influenza A virus [1])	MCC [2]	log K [3]	MIC [4]	CC50 [5]	MIC (Mycobacterium avium [6])	MCC [7]	MIC (Mycobacterium avium [8])	EC50 (Influenza A virus [9])	MIC (Mycobacterium kansasii)	CC50 [10]	MCC [11]	MCC [12]	MIC (Pichia kudriavzevii)	MIC [13]	MIC95 (Klebsiella pneumoniae [14])	MIC (Nakaseomyces glabratus)	MIC (Aspergillus fumigatus)	MIC95 (Escherichia coli)	MIC (Trichosporon asahii)	also measured
O=C(NCc1ccccc1)c1nccnc1NCc1ccccc1	> 100 µM	> 100 µM	1.04	> 100 µg/mL	> 100 µM	> 100 µg/mL	20 µM	> 100 µg/mL	> 100 µM	> 100 µg/mL	> 100 µM	> 100 µM	> 100 µM								
NC(=O)c1cnccn1 [PYRAZINAMIDE]			-0.687	102 µM						> 100 µg/mL											
CCCCNc1nccnc1C(=O)NCc1ccccc1	> 100 µM	> 100 µM	1.081	> 100 µg/mL	> 100 µM	> 100 µg/mL	> 100 µM	> 100 µg/mL	> 100 µM	> 100 µg/mL	> 100 µM	> 100 µM	> 100 µM	> 500 µM	> 500 µM	> 500 µM	> 500 µM	> 500 µM	> 500 µM	> 500 µM	MIC (Candida albicans): > 500 µM; MIC (Lichtheimia corymbifera): > 500 µM; MIC95 (Pseudomonas aeruginosa): > 500 µM; MIC95 (Klebsiella pneumoniae [15]): > 500 µM; MIC (Candida tropicalis): > 500 µM
CCCCCCNc1nccnc1C(=O)NCc1ccccc1	> 100 µM	> 100 µM	1.564	> 100 µg/mL	> 100 µM	> 100 µg/mL	100 µM	> 100 µg/mL	> 100 µM	> 100 µg/mL	> 100 µM	> 100 µM	100 µM	> 500 µM	> 500 µM	> 500 µM	> 500 µM	> 500 µM	> 500 µM	> 500 µM	MIC (Candida albicans): > 500 µM; MIC (Lichtheimia corymbifera): > 500 µM; MIC95 (Pseudomonas aeruginosa): > 500 µM; MIC95 (Klebsiella pneumoniae [15]): > 500 µM; MIC (Candida tropicalis): > 500 µM
CCCCCCCNc1cnc(C(=O)NCc2ccccc2)cn1	21 µM	> 100 µM	1.089	10 µM	> 100 µM	> 100 µg/mL	> 100 µM	> 100 µg/mL	47 µM	> 100 µg/mL	> 100 µM	≥ 100 µM	> 100 µM	> 500 µM	> 500 µM	> 500 µM	> 500 µM	> 500 µM	> 500 µM	> 500 µM	Ratio [16]: <=20; MIC (Candida albicans): > 500 µM; MIC (Lichtheimia corymbifera): > 500 µM; MIC95 (Pseudomonas aeruginosa): > 500 µM; MIC95 (Klebsiella pneumoniae [15]): > 500 µM; MIC (Candida tropicalis): > 500 µM
CCCCNc1cncc(C(=O)NCc2ccccc2)n1	> 100 µM	> 100 µM	0.549	44 µM	66 µM	> 100 µg/mL	100 µM	> 100 µg/mL	> 100 µM	176 µM	> 100 µM	100 µM	> 100 µM	> 500 µM	> 500 µM	> 500 µM	> 500 µM	> 500 µM	> 500 µM	> 500 µM	Activity (Staphylococcus aureus): inactive; MIC (Candida albicans): > 500 µM; MIC (Lichtheimia corymbifera): > 500 µM; MIC95 (Pseudomonas aeruginosa): > 500 µM; MIC95 (Klebsiella pneumoniae [15]): > 500 µM; MIC (Candida tropicalis): > 500 µM
CCCCCCCCNc1nccnc1C(=O)NCc1ccccc1	> 100 µM	> 100 µM	2.054	> 100 µg/mL	> 100 µM	> 100 µg/mL	100 µM	> 100 µg/mL	> 100 µM	> 100 µg/mL	> 100 µM	> 100 µM	> 100 µM	> 500 µM	> 500 µM	> 500 µM	> 500 µM	> 500 µM	> 500 µM	> 500 µM	MIC (Candida albicans): > 500 µM; MIC (Lichtheimia corymbifera): > 500 µM; MIC95 (Pseudomonas aeruginosa): > 500 µM; MIC95 (Klebsiella pneumoniae [15]): > 500 µM; MIC (Candida tropicalis): > 500 µM
CCCCCCNc1cncc(C(=O)NCc2ccccc2)n1	> 100 µM	> 100 µM	0.986	20 µM	9.5 µM	> 100 µg/mL	20 µM	> 100 µg/mL	> 100 µM	40 µM	> 100 µM	100 µM	> 100 µM	> 500 µM	> 500 µM	> 500 µM	> 500 µM	> 500 µM	> 500 µM	> 500 µM	Activity (Staphylococcus aureus): inactive; MIC (Candida albicans): > 500 µM; MIC (Lichtheimia corymbifera): > 500 µM; MIC95 (Pseudomonas aeruginosa): > 500 µM; MIC95 (Klebsiella pneumoniae [15]): > 500 µM; MIC (Candida tropicalis): > 500 µM
CCCCNc1cnc(C(=O)NCc2ccccc2)cn1	> 100 µM	> 100 µM	0.424	88 µM	57 µM	> 100 µg/mL	100 µM	> 100 µg/mL	> 100 µM	> 100 µg/mL	> 100 µM	> 100 µM	> 100 µM	> 500 µM	> 500 µM	> 500 µM	> 500 µM	> 500 µM	> 500 µM	> 500 µM	MIC (Candida albicans): > 500 µM; MIC (Lichtheimia corymbifera): > 500 µM; MIC95 (Pseudomonas aeruginosa): > 500 µM; MIC95 (Klebsiella pneumoniae [15]): > 500 µM; MIC (Candida tropicalis): > 500 µM
CCCCCNc1cncc(C(=O)NCc2ccccc2)n1	> 100 µM	> 100 µM	0.768	42 µM	33 µM	> 100 µg/mL	20 µM	> 100 µg/mL	> 100 µM	84 µM	> 100 µM	> 100 µM	> 100 µM	> 500 µM	> 500 µM	> 500 µM	> 500 µM	> 500 µM	> 500 µM	> 500 µM	Activity (Staphylococcus aureus): inactive; MIC (Candida albicans): > 500 µM; MIC (Lichtheimia corymbifera): > 500 µM; MIC95 (Pseudomonas aeruginosa): > 500 µM; MIC95 (Klebsiella pneumoniae [15]): > 500 µM; MIC (Candida tropicalis): > 500 µM
O=C(NCc1ccccc1)c1cncc(NCc2ccccc2)n1			0.483	157 µM		> 100 µg/mL		> 100 µg/mL		> 100 µg/mL											
CCCCCNc1nccnc1C(=O)NCc1ccccc1	> 100 µM	> 100 µM	1.321	> 100 µg/mL	> 100 µM	> 100 µg/mL	≥ 20 µM	> 100 µg/mL	> 100 µM	> 100 µg/mL	> 100 µM	> 100 µM	≥ 100 µM	> 500 µM	> 500 µM	> 500 µM	> 500 µM	> 500 µM	> 500 µM	> 500 µM	MIC (Candida albicans): > 500 µM; MIC (Lichtheimia corymbifera): > 500 µM; MIC95 (Pseudomonas aeruginosa): > 500 µM; MIC95 (Klebsiella pneumoniae [15]): > 500 µM; MIC (Candida tropicalis): > 500 µM
CCCCCCCNc1nccnc1C(=O)NCc1ccccc1	> 100 µM	> 100 µM	1.809	> 100 µg/mL	> 100 µM	> 100 µg/mL	100 µM	> 100 µg/mL	> 100 µM	> 100 µg/mL	> 100 µM	> 100 µM	100 µM	> 500 µM	> 500 µM	> 500 µM	> 500 µM	> 500 µM	> 500 µM	> 500 µM	MIC (Candida albicans): > 500 µM; MIC (Lichtheimia corymbifera): > 500 µM; MIC95 (Pseudomonas aeruginosa): > 500 µM; MIC95 (Klebsiella pneumoniae [15]): > 500 µM; MIC (Candida tropicalis): > 500 µM
O=C(NCc1ccccc1)c1nccnc1Cl				50 µM		> 100 µg/mL		> 100 µg/mL		100 µg/mL											
CCCCCNc1cnc(C(=O)NCc2ccccc2)cn1	37 µM	> 100 µM	0.638	21 µM	> 100 µM	> 100 µg/mL	> 100 µM	> 100 µg/mL	3.3 µM	> 100 µg/mL	> 100 µM	> 100 µM	> 100 µM	> 500 µM	> 500 µM	> 500 µM	> 500 µM	> 500 µM	> 500 µM	> 500 µM	MIC (Candida albicans): > 500 µM; MIC (Lichtheimia corymbifera): > 500 µM; MIC95 (Pseudomonas aeruginosa): > 500 µM; MIC95 (Klebsiella pneumoniae [15]): > 500 µM; MIC (Candida tropicalis): > 500 µM
